Source: PubChem BioAssay AID248 (DTP/NCI, 2004)
Values joined by “and” are separate entries in the source; they are usually repeats but may differ in a detail not shown here. Equal entries are not always repeated. Inconclusive results and toxic doses are left out. No stated cut-off is given here; in the data, active means T/C of 150% or more; inactive means T/C below 125%. Bridge positions count the residues as written; N and C are the ends. Peptide text beside a SMILES is read from it. I, II: the chains in the order shown.

Tested on: L1210 leukemia ip in BDF1 mice, survival T/C
Experiment: NCI In Vivo Anticancer Drug Screen. Data for tumor model L1210 Leukemia (intraperitoneal) in B6D2F1 (BDF1) mice
Settings: endpoint: mean survival time, higher = longer survival
Method in brief: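 Antitumor effect is assessed in tumor-bearing animals. Survival in the compound arm is compared with a vehicle-dosed control arm and expressed as their quotient.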

[1] = dose: 100.0 mg/kg/injection, schedule: Q01DX001 (ip), vehicle: saline
[2] = dose: 200.0 mg/kg/injection, schedule: Q01DX001 (ip), vehicle: saline
[3] = dose: 400.0 mg/kg/injection, schedule: Q01DX001 (ip), vehicle: saline
[4] = dose: 100.0 mg/kg/injection, schedule: Q04DX003 (ip), vehicle: saline with Tween-80
[5] = dose: 200.0 mg/kg/injection, schedule: Q04DX003 (ip), vehicle: saline with Tween-80
[6] = dose: 400.0 mg/kg/injection, schedule: Q04DX003 (ip), vehicle: saline with Tween-80
[7] = dose: 100.0 mg/kg/injection, schedule: Q04DX003 (ip), vehicle: Klucel (hydroxypropylcellulose) (HPC)
[8] = dose: 200.0 mg/kg/injection, schedule: Q01DX009 (ip), vehicle: Klucel (hydroxypropylcellulose) (HPC)
[9] = dose: 200.0 mg/kg/injection, schedule: Q04DX003 (ip), vehicle: Klucel (hydroxypropylcellulose) (HPC)
[10] = dose: 100.0 mg/kg/injection, schedule: Q01DX009 (ip), vehicle: saline with Tween-80

Measured: T/C

O=C(CCC(=O)Nc1ccc(C2=NCCN2)cc1)Nc1ccc(C2=NCCN2)cc1
active: dose: 12.0 mg/kg/injection, schedule: Q01DX Z (ip), vehicle: carboxymethylcellulose (CMC) 173 % of control | dose: 16.0 mg/kg/injection, schedule: Q01DX Z (ip), vehicle: carboxymethylcellulose (CMC) 218 % of control and 234 % of control | dose: 24.0 mg/kg/injection, schedule: Q01DX Z (ip), vehicle: carboxymethylcellulose (CMC) 216 % of control | dose: 128.0 mg/kg/injection, schedule: Q01DX001 (ip), vehicle: carboxymethylcellulose (CMC) 183 % of control | dose: 500.0 mg/kg/injection, schedule: Q01DX Z (oral), vehicle: carboxymethylcellulose (CMC) 177 % of control
inactive: dose: 2.0 mg/kg/injection, schedule: Q01DX Z (ip), vehicle: carboxymethylcellulose (CMC) 100 % of control | dose: 3.0 mg/kg/injection, schedule: Q01DX Z (ip), vehicle: carboxymethylcellulose (CMC) 105 % of control | dose: 4.0 mg/kg/injection, schedule: Q01DX Z (ip), vehicle: carboxymethylcellulose (CMC) 114 % of control | dose: 6.0 mg/kg/injection, schedule: Q01DX Z (ip), vehicle: carboxymethylcellulose (CMC) 107 % of control | dose: 38.0 mg/kg/injection, schedule: Q01DX001 (ip), vehicle: carboxymethylcellulose (CMC) 120 % of control | dose: 38.0 mg/kg/injection, schedule: Q01DX001 (ip), vehicle: other 117 % of control | dose: 56.0 mg/kg/injection, schedule: Q01DX001 (ip), vehicle: carboxymethylcellulose (CMC) 120 % of control | dose: 56.0 mg/kg/injection, schedule: Q01DX001 (ip), vehicle: other 119 % of control | dose: 62.0 mg/kg/injection, schedule: Q01DX Z (oral), vehicle: carboxymethylcellulose (CMC) 104 % of control | dose: 64.0 mg/kg/injection, schedule: Q01DX Z (ip), vehicle: carboxymethylcellulose (CMC) 113 % of control | dose: 125.0 mg/kg/injection, schedule: Q01DX Z (oral), vehicle: carboxymethylcellulose (CMC) 104 % of control | dose: 250.0 mg/kg/injection, schedule: Q01DX Z (oral), vehicle: carboxymethylcellulose (CMC) 110 % of control

Nc1nc(N)c2c(n1)[n+]([O-])c1ccccc1[n+]2[O-]
inactive: [1] 103 % of control | [2] 103 % of control | [3] 94 % of control

O=S(=O)(O)CCS
inactive: [1] 94 % of control | [2] 105 % of control | [3] 100 % of control

O=C(CC(=O)C(F)(F)C(F)(F)C(F)(F)F)C(F)(F)F
inactive: dose: 12.5 mg/kg/injection, schedule: Q01DX009 (ip), vehicle: saline 107 % of control | dose: 12.5 mg/kg/injection, schedule: Q04DX003 (ip), vehicle: saline 102 % of control | dose: 25.0 mg/kg/injection, schedule: Q01DX009 (ip), vehicle: saline 88 % of control | dose: 25.0 mg/kg/injection, schedule: Q04DX003 (ip), vehicle: saline 87 % of control | dose: 50.0 mg/kg/injection, schedule: Q04DX003 (ip), vehicle: saline 93 % of control

O=C(O)c1cc(I)cc(I)c1
inactive: [4] 105 % of control | [5] 101 % of control | [6] 95 % of control

CCOC(=O)C(Cc1ccc(O)cc1)NC(=O)C(N)CSSCC(N)C(=O)NC(Cc1ccc(O)cc1)C(=O)OCC (stereo not drawn) (I: H-Cys-Tyr-OEt / II: H-Cys-Tyr-OEt; disulfide I:1-II:1; configuration not given here)
inactive: [1] 97 % of control | [2] 105 % of control | [3] 94 % of control

O=C1[O][Hg][c]2c1cccc2[N+](=O)[O-]
inactive: dose: 2.5 mg/kg/injection, schedule: Q01DX009 (ip), vehicle: Klucel (hydroxypropylcellulose) (HPC) 92 % of control | dose: 2.5 mg/kg/injection, schedule: Q04DX003 (ip), vehicle: Klucel (hydroxypropylcellulose) (HPC) 89 % of control | dose: 5.0 mg/kg/injection, schedule: Q01DX009 (ip), vehicle: Klucel (hydroxypropylcellulose) (HPC) 90 % of control | dose: 5.0 mg/kg/injection, schedule: Q04DX003 (ip), vehicle: Klucel (hydroxypropylcellulose) (HPC) 88 % of control | dose: 10.0 mg/kg/injection, schedule: Q01DX009 (ip), vehicle: Klucel (hydroxypropylcellulose) (HPC) 92 % of control | dose: 10.0 mg/kg/injection, schedule: Q04DX003 (ip), vehicle: Klucel (hydroxypropylcellulose) (HPC) 93 % of control and 96 % of control | dose: 20.0 mg/kg/injection, schedule: Q04DX003 (ip), vehicle: Klucel (hydroxypropylcellulose) (HPC) 98 % of control

CCN(CC)CCCCCOC(=O)c1ccccc1
inactive: dose: 50.0 mg/kg/injection, schedule: Q01DX009 (ip), vehicle: Klucel (hydroxypropylcellulose) (HPC) 92 % of control | [7] 97 % of control | [8] 96 % of control | [9] 107 % of control

CCCCCCCCCCCCCCCCOc1ccc(-c2cc(=O)n(C)n2C)cc1
inactive: [7] 95 % of control | [9] 101 % of control | dose: 400.0 mg/kg/injection, schedule: Q04DX003 (ip), vehicle: Klucel (hydroxypropylcellulose) (HPC) 95 % of control

O=C(O)C12C3C4CC5C3C1C5C42 (configuration not stated)
inactive: [4] 98 % of control | [5] 106 % of control | [6] 97 % of control

CSC(C)(S(C)(=O)=O)S(C)(=O)=O
inactive: dose: 75.0 mg/kg/injection, schedule: Q01DX001 (ip), vehicle: saline with Tween-80 102 % of control | dose: 150.0 mg/kg/injection, schedule: Q01DX001 (ip), vehicle: saline with Tween-80 96 % of control | dose: 300.0 mg/kg/injection, schedule: Q01DX001 (ip), vehicle: saline with Tween-80 98 % of control

BrCC1OCCCO1
inactive: dose: 25.0 mg/kg/injection, schedule: Q01DX009 (ip), vehicle: saline with Tween-80 96 % of control | dose: 25.0 mg/kg/injection, schedule: Q04DX002 (ip), vehicle: saline 100 % of control | dose: 50.0 mg/kg/injection, schedule: Q04DX002 (ip), vehicle: saline 118 % of control | [10] 114 % of control | dose: 100.0 mg/kg/injection, schedule: Q04DX002 (ip), vehicle: saline with Tween-80 117 % of control | dose: 100.0 mg/kg/injection, schedule: Q04DX002 (ip), vehicle: saline 100 % of control

CC1([N+](=O)[O-])COCOC1
inactive: dose: 100.0 mg/kg/injection, schedule: Q04DX003 (ip), vehicle: saline 103 % of control | dose: 200.0 mg/kg/injection, schedule: Q04DX003 (ip), vehicle: saline 95 % of control | dose: 400.0 mg/kg/injection, schedule: Q04DX003 (ip), vehicle: saline 94 % of control

Cc1csc2[nH]c(=O)[nH]c(=O)c12
inactive: dose: 100.0 mg/kg/injection, schedule: Q01DX009 (ip), vehicle: water 104 % of control | dose: 100.0 mg/kg/injection, schedule: Q04DX003 (ip), vehicle: water 112 % of control | dose: 200.0 mg/kg/injection, schedule: Q04DX003 (ip), vehicle: water 115 % of control | dose: 400.0 mg/kg/injection, schedule: Q01DX009 (ip), vehicle: water 86 % of control | dose: 400.0 mg/kg/injection, schedule: Q04DX003 (ip), vehicle: water 118 % of control

CC(C)(CO)N=Cc1cc([N+](=O)[O-])ccc1O
inactive: [1] 110 % of control | [2] 107 % of control | [3] 110 % of control

Fc1c(F)c(F)c(-c2ccccc2)c(F)c1F
inactive: dose: 25.6 mg/kg/injection, schedule: Q04DX002 (ip), vehicle: saline with Tween-80 92 % of control | dose: 64.0 mg/kg/injection, schedule: Q04DX002 (ip), vehicle: saline with Tween-80 95 % of control | dose: 160.0 mg/kg/injection, schedule: Q04DX002 (ip), vehicle: saline with Tween-80 95 % of control | dose: 400.0 mg/kg/injection, schedule: Q04DX002 (ip), vehicle: saline with Tween-80 95 % of control

CCC(O)C(C)(O)C(=O)O (configuration not stated)
inactive: dose: 50.0 mg/kg/injection, schedule: Q01DX009 (ip), vehicle: saline with Tween-80 96 % of control | [10] 96 % of control | dose: 200.0 mg/kg/injection, schedule: Q01DX009 (ip), vehicle: saline with Tween-80 92 % of control

N#CC(C#N)=C1CCSc2ccc(Cl)cc21
inactive: [1] 94 % of control | [2] 97 % of control | [3] 90 % of control

Cc1ccc(S(=O)(=O)C(Cl)(Cl)Cl)cc1
inactive: dose: 100.0 mg/kg/injection, schedule: Q01DX001 (ip), vehicle: Klucel (hydroxypropylcellulose) (HPC) 96 % of control | dose: 100.0 mg/kg/injection, schedule: Q01DX009 (ip), vehicle: Klucel (hydroxypropylcellulose) (HPC) 97 % of control | dose: 200.0 mg/kg/injection, schedule: Q01DX001 (ip), vehicle: Klucel (hydroxypropylcellulose) (HPC) 96 % of control | [8] 104 % of control | dose: 400.0 mg/kg/injection, schedule: Q01DX001 (ip), vehicle: Klucel (hydroxypropylcellulose) (HPC) 102 % of control | dose: 400.0 mg/kg/injection, schedule: Q01DX009 (ip), vehicle: Klucel (hydroxypropylcellulose) (HPC) 104 % of control
